Test results: paper PMC4312176 (Chemical communications (Cambridge, England), 2015)

Legend:
[1] = biological target: T1, Plasmodium falciparum 1-deoxy-D-xylulose 5-phosphate reductoisomerase (PfDxr) (Plasmodium falciparum, UniProt Q8IKG4); experiment: inhibition of purified recombinant PfDxr, NADPH consumption assay; type: biochemical
T1 sequence (Q8IKG4 73-488): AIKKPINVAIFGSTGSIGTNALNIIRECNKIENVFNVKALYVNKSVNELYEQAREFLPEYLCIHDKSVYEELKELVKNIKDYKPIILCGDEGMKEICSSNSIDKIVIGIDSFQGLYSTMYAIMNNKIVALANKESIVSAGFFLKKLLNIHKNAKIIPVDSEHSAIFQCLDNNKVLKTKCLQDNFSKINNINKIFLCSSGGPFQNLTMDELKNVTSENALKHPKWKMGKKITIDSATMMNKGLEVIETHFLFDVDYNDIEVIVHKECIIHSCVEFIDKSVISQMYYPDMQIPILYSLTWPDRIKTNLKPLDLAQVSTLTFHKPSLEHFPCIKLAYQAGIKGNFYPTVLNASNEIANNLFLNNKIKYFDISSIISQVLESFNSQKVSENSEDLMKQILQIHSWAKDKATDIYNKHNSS

[2] = biological target: T1, Plasmodium falciparum 1-deoxy-D-xylulose 5-phosphate reductoisomerase (PfDxr); experiment: co-crystal structure; type: biochemical

Compound	Ki [1]	Ki [2]
CCC(=O)N(O)CCCP(=O)(O)O [FR-900098P]	0.92 ± 0.19 nM	
CC(=O)N(O)CCCP(=O)(O)O [FR-900098]		3.7 ± 0.9 nM
